Reference: PubChem BioAssay (NCI)
Several values for one entry are separate records, joined by “and”; a condition that tells them apart may be missing. Equal values may be shown once.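 Step 1: Grow cells in 96-well plates. Step 2: Expose to compound for 48 hours at 5 concentrations. Step 3: Interpolate endpoints linearly; if unreached, use highest concentration. GI50: concentration for 50% inhibition of growth. TGI marks complete inhibition of growth.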

Legend:
Test in all cases: NCI tumour cell line growth inhibition, 48 h
[1] = system: NCI/ADR-RES ovarian
[2] = system: T-47D breast
[3] = system: MDA-MB-231 breast
[4] = system: MCF7 breast
[5] = system: PC-3 prostate
[6] = system: 786-0 renal

| SMILES | TGI [1] | TGI [2] | TGI [3] | TGI [4] | TGI [5] | TGI [6] | GI50 [1] | GI50 [2] | GI50 [3] | GI50 [4] | GI50 [5] | GI50 [6] |
| --- | --- | --- | --- | --- | --- | --- | --- | --- | --- | --- | --- | --- |
| C1CCN2CC34CC(CC5CCCN(C6CCCC3N6)C54)C2C1 (configuration not stated) | > 100 µM | > 100 µM | > 100 µM | > 100 µM | > 100 µM | > 100 µM | – | – | – | – | – | – |
| NC(=O)c1ccc(-c2c3ccccc3cc3c2ccc2ccccc23)cc1 | 18.1 µM | > 100 µM | 23.8 µM | 11.6 µM | 24.5 µM | 14.8 µM | 1.65 µM | 3.19 µM | 3.91 µM | 1.88 µM | 4.88 µM | 3.64 µM |
| C[C@H]1CC(=O)[C@@]2(O)C#C/C=C\C#C[C@@H]3Nc4c(cc(O)c5c4C(=O)c4ccccc4C5=O)[C@]24O[C@]314 | 0.44 µM | 0.612 µM | > 25 µM | 0.247 µM and 0.895 µM | – | 0.106 µM and 0.262 µM | – | – | – | 0.0025 µM | – | 0.00435 µM |
| C=C(C)[C@@H]1CC[C@]2(C#N)CC[C@]3(C)[C@H](CC[C@@H]4[C@@]5(C)CCCNC(C)(C)[C@@H]5CC[C@]43C)[C@@H]12 | 3.63 µM | 4.05 µM | 3.38 µM | 2.91 µM | 10.7 µM | 3.07 µM | 1.89 µM | 1.76 µM | 1.84 µM | 1.53 µM | 2.7 µM | 1.69 µM |
| O=C(Nc1ccc(-c2nc3ccc(NC(=O)c4ccc(Cl)cc4)cc3[nH]2)cc1)c1ccc(Cl)cc1 | 64.4 µM | 5.01 µM | 15.4 µM | 4.91 µM | 5.93 µM | 2.26 µM | 17 µM | 2.13 µM | 3.68 µM | 1.23 µM | 2.11 µM | 0.308 µM |
| CCN(CC)c1ccc(/C=N\NC(=O)c2cccc(Nc3ccnc(C(F)(F)F)c3)c2)c(O)c1 | > 28.1 µM | > 100 µM | > 43.1 µM | > 100 µM | > 100 µM | 0.885 µM | 0.765 µM | 0.485 µM | 0.345 µM | 0.296 µM | 0.646 µM | 0.27 µM |
| N#CC(C#N)=C/C=C/c1cccc([N+](=O)[O-])c1 | 5.04 µM | 6.81 µM | 16 µM | 9.55 µM | 19.3 µM | 3.17 µM | 0.652 µM | 1.4 µM | 1.74 µM | 0.482 µM | 2.09 µM | 1.51 µM |
| CC(C)=CCC[C@](C)(O)[C@H]1CC[C@]2(C)[C@@H]1CC[C@@H]1[C@@]3(C)CC[C@H](OC(=O)CCC(=O)O)C(C)(C)[C@@H]3CC[C@]12C | > 100 µM | > 100 µM | 87.5 µM | > 100 µM | 28.4 µM | > 100 µM | 30.4 µM | 19.4 µM | 30.1 µM | 29.3 µM | 8.79 µM | > 100 µM |
| CN1C=CN(Cc2ccc(-c3ccccn3)nc2)[CH-]1.CN1C=CN(Cc2ccc(-c3ccccn3)nc2)[CH-]1.[Au+3] | > 100 µM | 3.07 µM | 15 µM | 12.2 µM | > 100 µM | > 100 µM | > 70.8 µM | 1.17 µM | 2.64 µM | 0.314 µM | 0.922 µM | 6.14 µM |
| COc1cc(Nc2ncc(-c3ccccc3)o2)cc(OC)c1OC | > 25 µM | > 25 µM | > 25 µM | > 25 µM | > 25 µM | > 25 µM | 1.38 µM | 0.231 µM | 2.5 µM | 0.0695 µM | 7.3 µM | 5.13 µM |
| Cc1cc(I)cc(CN(C)CCCCN2CCCC2)c1O | > 100 µM | 40.4 µM | 51.1 µM | 36.8 µM | 83.6 µM | 31.4 µM | 35.2 µM | 15.7 µM | 18.8 µM | 16.9 µM | 24.8 µM | 15.3 µM |
| C=C1C(=O)O[C@H]2[C@H](OC(C)=O)[C@@H](C)CCC/C(C)=C/CC[C@]3(CO3)[C@H](O)C[C@@H]12 | 35.2 µM | 9.88 µM | 17.2 µM | 12 µM | – | 14.1 µM | 5.92 µM | 2.8 µM | 5.25 µM | 3.24 µM | – | 3.65 µM |
| Fc1cc(Nc2ccc3c(OCCCN4CCOCC4)cccc3n2)ccc1Cl | 11.2 µM | 7.16 µM | – | – | 5.83 µM | 3.53 µM | 3.09 µM | 2.27 µM | – | – | 2.08 µM | 1.79 µM |
| Cc1cc(C#Cc2ccccc2)ccc1-n1c(/C=C/c2ccc(O)cc2)nc2ccccc2c1=O | 42 µM | 8.13 µM | 29.5 µM | 11 µM | > 100 µM | 28.7 µM | 3.09 µM | 2.02 µM | 3.89 µM | 2.72 µM | 3.24 µM | 3.65 µM |
| O=C(O)c1c(Cl)c(Cl)c(Cl)c(Cl)c1-c1c2cc(I)c(=O)c(I)c-2oc2c(I)c(O)c(I)cc12 | > 200 µM | 78.2 µM | 82.8 µM and 75.5 µM | > 200 µM | 89.3 µM | 123 µM | > 200 µM | 29.4 µM | 22.5 µM and 26.7 µM | 83.5 µM | 39.8 µM and 42.3 µM | 46.5 µM |
| COCCOC(=O)CCn1cc(F)c(=O)[nH]c1=O | > 150 µg/mL | > 150 µg/mL | > 150 µg/mL | > 150 µg/mL | > 150 µg/mL | > 150 µg/mL | 46.4 µg/mL | 73.4 µg/mL | > 150 µg/mL | 1.13 µg/mL | 108 µg/mL | 8.12 µg/mL |
| CCOc1ccc(N2C(N)=NC(N)=NC2(C)C)cc1 | > 100 µM | > 100 µM | > 100 µM | > 100 µM | > 100 µM | > 100 µM | > 100 µM | > 100 µM | > 100 µM | > 100 µM | 45.7 µM | 44.9 µM |
| NC(=NC1C2CC3CC(C2)CC1C3)Nc1ccc(I)cc1 (configuration not stated) | 17.1 µM | – | 11 µM | 10.7 µM | 12.2 µM | 15.5 µM | 4.59 µM | – | 3.31 µM | 2.45 µM | 3.14 µM | 4.03 µM |
| COCCn1cc(-c2csc(-c3c[nH]c4ccc(F)cc34)n2)c2cccnc21 | 29.2 µM | – | > 100 µM | > 100 µM | > 100 µM | > 100 µM | 2.17 µM | – | 2.59 µM | 2.09 µM | 5.07 µM | 5.12 µM |
